Source: ChEMBL document CHEMBL1201862, “PubChem BioAssay data set” (2004)
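Values below derive from 48-hour exposures of cells grown in 96-well plates, with endpoints linearly interpolated between the two concentrations bracketing the appropriate inhibition level. GI50 marks 50% less growth.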 The source made the active and inactive calls. Rule as the data show it: active = GI50 up to about 1.1 µM and inactive = higher.

Tests used:
Assay in all cases: DTP human tumour cell line panel, 48 h
[1] = test system: A549
[2] = test system: EKVX
[3] = test system: HL-60
[4] = test system: HOP-62
[5] = test system: HT-29
[6] = test system: KM12
[7] = test system: MOLT-4
[8] = test system: OVCAR-3
[9] = test system: OVCAR-5
[10] = test system: RPMI-8226
[11] = test system: RXF 393
[12] = test system: SF-295
[13] = test system: SK-MEL-28
[14] = test system: SK-MEL-5
[15] = test system: SNB-75
[16] = test system: TK-10
[17] = test system: UO-31
[18] = test system: NCI-H522

| Structure (SMILES) | GI50 [1] | GI50 [2] | GI50 [3] | GI50 [4] | GI50 [5] | GI50 [6] | GI50 [7] | GI50 [8] | GI50 [9] | GI50 [10] | GI50 [11] | GI50 [12] | GI50 [13] | GI50 [14] | GI50 [15] | GI50 [16] | GI50 [17] | GI50 [18] |
| --- | --- | --- | --- | --- | --- | --- | --- | --- | --- | --- | --- | --- | --- | --- | --- | --- | --- | --- |
| CN(C)CCNC(=O)c1cccc2[nH]c(-c3ccccc3)nc12 | 16.3 µM (inactive) | 23.9 µM (inactive) | 21.7 µM (inactive) | 22.3 µM (inactive) | 19.8 µM (inactive) | 22.4 µM (inactive) | 4.91 µM (inactive) | 21.6 µM (inactive) | 15.7 µM (inactive) | 32.1 µM (inactive) | 17.2 µM (inactive) | 25.2 µM (inactive) | 18.3 µM (inactive) | 15.1 µM (inactive) | 37.8 µM (inactive) | 18.5 µM (inactive) | 12.8 µM (inactive) | – |
| CC1=C(c2cc(C(=O)Nc3nccs3)nc(NC#N)n2)Sc2ccccc2N1 | > 100 µM (inactive) | > 100 µM (inactive) | > 100 µM (inactive) | > 100 µM (inactive) | > 100 µM (inactive) | > 100 µM (inactive) | > 100 µM (inactive) | > 100 µM (inactive) | > 100 µM (inactive) | > 100 µM (inactive) | – | > 100 µM (inactive) | > 100 µM (inactive) | > 100 µM (inactive) | 87.3 µM (inactive) | > 100 µM (inactive) | > 100 µM (inactive) | > 100 µM (inactive) |
| COC(=O)CC(CC(=O)C(=O)OC)C(=O)OC (stereo not drawn) | > 100 µM (inactive) | > 100 µM (inactive) | > 100 µM (inactive) | > 100 µM (inactive) | > 100 µM (inactive) | > 100 µM (inactive) | > 100 µM (inactive) | > 100 µM (inactive) | > 100 µM (inactive) | > 100 µM (inactive) | > 100 µM (inactive) | > 100 µM (inactive) | > 100 µM (inactive) | > 100 µM (inactive) | > 100 µM (inactive) | > 100 µM (inactive) | > 100 µM (inactive) | – |
| CC1OC(n2cc(I)c(=O)[nH]c2=O)C=CC1=O (stereo not drawn) | 26.7 µM (inactive) | 17.5 µM (inactive) | 6.82 µM (inactive) | 18.5 µM (inactive) | 16.8 µM (inactive) | 13 µM (inactive) | 14.1 µM (inactive) | 17.5 µM (inactive) | 25 µM (inactive) | 13.9 µM (inactive) | – | 18.5 µM (inactive) | 15.7 µM (inactive) | 16 µM (inactive) | 17.2 µM (inactive) | 18.6 µM (inactive) | 16.9 µM (inactive) | – |
| COc1ccc2c(c1)[n+]([O-])c(-c1ccccc1)c(N)[n+]2[O-] | 37.1 µM (inactive) | 43.8 µM (inactive) | 41.6 µM (inactive) | 39 µM (inactive) | 52.7 µM (inactive) | 63.4 µM (inactive) | 71.3 µM (inactive) | 39.8 µM (inactive) | 94 µM (inactive) | 77.1 µM (inactive) | – | 67.1 µM (inactive) | 25 µM (inactive) | 18 µM (inactive) | > 100 µM (inactive) | > 100 µM (inactive) | 63.1 µM (inactive) | 17.1 µM (inactive) |
| COC1OC(CBr)C(OC(=O)c2ccccc2)C(O)C1Br (stereo not drawn) | > 100 µM (inactive) | – | > 100 µM (inactive) | > 100 µM (inactive) | > 100 µM (inactive) | > 100 µM (inactive) | > 100 µM (inactive) | > 100 µM (inactive) | > 100 µM (inactive) | > 100 µM (inactive) | > 100 µM (inactive) | > 100 µM (inactive) | > 100 µM (inactive) | > 100 µM (inactive) | – | > 100 µM (inactive) | – | > 100 µM (inactive) |
| CN(C(=N)c1ccccc1)c1ccccc1 | > 100 µM (inactive) | > 100 µM (inactive) | > 100 µM (inactive) | – | > 100 µM (inactive) | > 100 µM (inactive) | > 100 µM (inactive) | > 100 µM (inactive) | – | > 100 µM (inactive) | – | > 100 µM (inactive) | > 100 µM (inactive) | > 100 µM (inactive) | 47.6 µM (inactive) | > 100 µM (inactive) | > 100 µM (inactive) | – |
| O=C(CSc1nnc(-c2ccc(/N=C\c3ccc(Cl)cc3)cc2)o1)Nc1ccccc1Cl | > 100 µM (inactive) | > 100 µM (inactive) | > 100 µM (inactive) | > 100 µM (inactive) | > 100 µM (inactive) | > 100 µM (inactive) | > 100 µM (inactive) | – | – | > 100 µM (inactive) | > 100 µM (inactive) | > 100 µM (inactive) | > 100 µM (inactive) | > 100 µM (inactive) | > 100 µM (inactive) | > 100 µM (inactive) | > 100 µM (inactive) | > 100 µM (inactive) |
| c1ccc(-c2sc(-c3ccccc3)c3c2C(c2ccccc2)c2c(-c4ccccc4)sc(-c4ccccc4)c2C3c2ccccc2)cc1 (stereo not drawn) | > 100 µM (inactive) | > 100 µM (inactive) | > 100 µM (inactive) | > 100 µM (inactive) | > 100 µM (inactive) | > 100 µM (inactive) | – | > 100 µM (inactive) | > 100 µM (inactive) | > 100 µM (inactive) | > 100 µM (inactive) | > 100 µM (inactive) | > 100 µM (inactive) | > 100 µM (inactive) | > 100 µM (inactive) | > 100 µM (inactive) | > 100 µM (inactive) | > 100 µM (inactive) |
| NC(=O)NNC/C(Cl)=C(\Cl)C(=O)O | > 100 µM (inactive) | > 100 µM (inactive) | > 100 µM (inactive) | > 100 µM (inactive) | > 100 µM (inactive) | > 100 µM (inactive) | > 100 µM (inactive) | > 100 µM (inactive) | > 100 µM (inactive) | > 100 µM (inactive) | – | > 100 µM (inactive) | > 100 µM (inactive) | > 100 µM (inactive) | < 0.01 µM (active) | > 100 µM (inactive) | > 100 µM (inactive) | > 100 µM (inactive) |
| Cc1cccc(C)c1N1C(=O)C(=O)C(c2nc3ccccc3s2)/C(=N/NC(=O)NN)C1=O (stereo not drawn) | > 100 µM (inactive) | > 100 µM (inactive) | > 100 µM (inactive) | > 100 µM (inactive) | > 100 µM (inactive) | > 100 µM (inactive) | > 100 µM (inactive) | > 100 µM (inactive) | – | – | > 100 µM (inactive) | > 100 µM (inactive) | > 100 µM (inactive) | > 100 µM (inactive) | > 100 µM (inactive) | > 100 µM (inactive) | > 100 µM (inactive) | > 100 µM (inactive) |
| Cc1cc(=O)n2c3c(c4c(cc13)c(CO)cc(=O)n4C)OC2 | 36.1 µM (inactive) | 64.4 µM (inactive) | – | 13 µM (inactive) | 19.5 µM (inactive) | 7.94 µM (inactive) | – | 11.8 µM (inactive) | 16.5 µM (inactive) | 32.1 µM (inactive) | – | 30.3 µM (inactive) | 18.8 µM (inactive) | 20.1 µM (inactive) | 19.9 µM (inactive) | 11.8 µM (inactive) | 7.69 µM (inactive) | 4.94 µM (inactive) |
| O=NN1CCN=C1c1ccc([N+](=O)[O-])cc1 | > 100 µM (inactive) | – | > 100 µM (inactive) | > 100 µM (inactive) | > 100 µM (inactive) | > 100 µM (inactive) | > 100 µM (inactive) | > 100 µM (inactive) | > 100 µM (inactive) | > 100 µM (inactive) | > 100 µM (inactive) | > 100 µM (inactive) | > 100 µM (inactive) | > 100 µM (inactive) | > 100 µM (inactive) | > 100 µM (inactive) | 66.2 µM (inactive) | > 100 µM (inactive) |
| CCOC(=O)C1(c2ccccc2)CCC(=O)CC1 | > 100 µM (inactive) | > 100 µM (inactive) | > 100 µM (inactive) | > 100 µM (inactive) | > 100 µM (inactive) | > 100 µM (inactive) | > 100 µM (inactive) | > 100 µM (inactive) | > 100 µM (inactive) | – | > 100 µM (inactive) | > 100 µM (inactive) | > 100 µM (inactive) | > 100 µM (inactive) | > 100 µM (inactive) | > 100 µM (inactive) | > 100 µM (inactive) | > 100 µM (inactive) |
| O=C(O)CCSC(=O)Nc1ccccc1Cl | > 100 µM (inactive) | > 100 µM (inactive) | – | > 100 µM (inactive) | > 100 µM (inactive) | 51.2 µM (inactive) | > 100 µM (inactive) | > 100 µM (inactive) | > 100 µM (inactive) | > 100 µM (inactive) | > 100 µM (inactive) | > 100 µM (inactive) | > 100 µM (inactive) | > 100 µM (inactive) | > 100 µM (inactive) | > 100 µM (inactive) | > 100 µM (inactive) | – |
| CCCCCCCCCCCCNC(=S)OCCCC | > 100 µM (inactive) | > 100 µM (inactive) | 16.4 µM (inactive) | > 100 µM (inactive) | 72.3 µM (inactive) | 28 µM (inactive) | 17.9 µM (inactive) | – | 31.8 µM (inactive) | 15.7 µM (inactive) | > 100 µM (inactive) | > 100 µM (inactive) | 76.6 µM (inactive) | 81.3 µM (inactive) | > 100 µM (inactive) | 19.7 µM (inactive) | > 100 µM (inactive) | > 100 µM (inactive) |
| N#C/C(=C\c1ccc(O)c(O)c1)C(N)=S [TYRPHOSTIN 47] | > 100 µM (inactive) | > 100 µM (inactive) | 10.1 µM (inactive) | > 100 µM (inactive) | 61.8 µM (inactive) | 68.2 µM (inactive) | 32.7 µM (inactive) | 38.7 µM (inactive) | > 100 µM (inactive) | > 49.2 µM (inactive) | – | 82.8 µM (inactive) | > 84.7 µM (inactive) | 71.1 µM (inactive) | 7.36 µM (inactive) | > 100 µM (inactive) | 98.9 µM (inactive) | 16.2 µM (inactive) |
